The term Ki denotes the dissociation constant of the complex between target and ligand, obtained from inhibition or displacement. The term IC50 denotes the concentration that inhibits the measured activity by half.

Values joined by “and” are separate entries in the source; they are usually repeats but may differ in a detail not shown here. Equal values may be shown once.

The target in test [1] is T1, mGluR5 (Homo sapiens, UniProt P41594).
T1 construct: host or cells: CHO cells transfected with mGluR5 (earlier work)
T1 sequence (P41594 21-1212): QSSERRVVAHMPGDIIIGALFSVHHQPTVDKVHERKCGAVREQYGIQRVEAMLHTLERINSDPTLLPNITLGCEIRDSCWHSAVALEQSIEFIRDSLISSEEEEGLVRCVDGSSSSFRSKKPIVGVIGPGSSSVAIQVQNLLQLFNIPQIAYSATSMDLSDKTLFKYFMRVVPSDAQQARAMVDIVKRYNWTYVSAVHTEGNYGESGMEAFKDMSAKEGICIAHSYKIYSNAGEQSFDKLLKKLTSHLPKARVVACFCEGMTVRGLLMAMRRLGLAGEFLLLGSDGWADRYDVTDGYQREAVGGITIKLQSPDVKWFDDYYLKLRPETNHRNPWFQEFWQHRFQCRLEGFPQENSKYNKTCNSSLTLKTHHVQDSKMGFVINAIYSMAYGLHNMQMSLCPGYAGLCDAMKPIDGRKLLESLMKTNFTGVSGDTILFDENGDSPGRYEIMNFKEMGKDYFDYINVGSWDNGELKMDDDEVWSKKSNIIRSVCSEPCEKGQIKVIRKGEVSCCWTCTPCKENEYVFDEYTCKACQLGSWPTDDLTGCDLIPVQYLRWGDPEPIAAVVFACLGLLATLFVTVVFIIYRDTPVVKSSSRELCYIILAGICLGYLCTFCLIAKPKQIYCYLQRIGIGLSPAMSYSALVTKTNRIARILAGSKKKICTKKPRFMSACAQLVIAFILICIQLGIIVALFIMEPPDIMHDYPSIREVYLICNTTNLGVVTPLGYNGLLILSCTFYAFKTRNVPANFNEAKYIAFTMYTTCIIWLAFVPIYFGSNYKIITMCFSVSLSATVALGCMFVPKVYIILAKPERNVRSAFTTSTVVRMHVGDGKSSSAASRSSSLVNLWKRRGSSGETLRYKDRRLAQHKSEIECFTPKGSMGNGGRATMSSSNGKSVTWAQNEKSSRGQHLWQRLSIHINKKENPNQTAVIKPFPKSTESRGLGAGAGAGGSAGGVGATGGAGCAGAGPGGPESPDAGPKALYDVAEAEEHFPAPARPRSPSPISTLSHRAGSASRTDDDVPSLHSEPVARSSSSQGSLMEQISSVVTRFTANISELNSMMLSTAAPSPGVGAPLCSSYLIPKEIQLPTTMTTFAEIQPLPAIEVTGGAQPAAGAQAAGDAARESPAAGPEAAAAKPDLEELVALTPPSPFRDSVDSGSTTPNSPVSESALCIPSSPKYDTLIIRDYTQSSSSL
To be noted: recombinant CHO cells, Published US Application 2001/0056084; cited from earlier work.

In test [2] the target is T2, mGluR5 (Rattus norvegicus, UniProt P31424).
T2 construct: they provide a native system that endogenously expresses high levels of mGluR5; endogenous in cells; host or cells: primary (secondary-culture) rat cortical astrocytes from Sprague Dawley pups
T2 sequence (P31424 21-1203): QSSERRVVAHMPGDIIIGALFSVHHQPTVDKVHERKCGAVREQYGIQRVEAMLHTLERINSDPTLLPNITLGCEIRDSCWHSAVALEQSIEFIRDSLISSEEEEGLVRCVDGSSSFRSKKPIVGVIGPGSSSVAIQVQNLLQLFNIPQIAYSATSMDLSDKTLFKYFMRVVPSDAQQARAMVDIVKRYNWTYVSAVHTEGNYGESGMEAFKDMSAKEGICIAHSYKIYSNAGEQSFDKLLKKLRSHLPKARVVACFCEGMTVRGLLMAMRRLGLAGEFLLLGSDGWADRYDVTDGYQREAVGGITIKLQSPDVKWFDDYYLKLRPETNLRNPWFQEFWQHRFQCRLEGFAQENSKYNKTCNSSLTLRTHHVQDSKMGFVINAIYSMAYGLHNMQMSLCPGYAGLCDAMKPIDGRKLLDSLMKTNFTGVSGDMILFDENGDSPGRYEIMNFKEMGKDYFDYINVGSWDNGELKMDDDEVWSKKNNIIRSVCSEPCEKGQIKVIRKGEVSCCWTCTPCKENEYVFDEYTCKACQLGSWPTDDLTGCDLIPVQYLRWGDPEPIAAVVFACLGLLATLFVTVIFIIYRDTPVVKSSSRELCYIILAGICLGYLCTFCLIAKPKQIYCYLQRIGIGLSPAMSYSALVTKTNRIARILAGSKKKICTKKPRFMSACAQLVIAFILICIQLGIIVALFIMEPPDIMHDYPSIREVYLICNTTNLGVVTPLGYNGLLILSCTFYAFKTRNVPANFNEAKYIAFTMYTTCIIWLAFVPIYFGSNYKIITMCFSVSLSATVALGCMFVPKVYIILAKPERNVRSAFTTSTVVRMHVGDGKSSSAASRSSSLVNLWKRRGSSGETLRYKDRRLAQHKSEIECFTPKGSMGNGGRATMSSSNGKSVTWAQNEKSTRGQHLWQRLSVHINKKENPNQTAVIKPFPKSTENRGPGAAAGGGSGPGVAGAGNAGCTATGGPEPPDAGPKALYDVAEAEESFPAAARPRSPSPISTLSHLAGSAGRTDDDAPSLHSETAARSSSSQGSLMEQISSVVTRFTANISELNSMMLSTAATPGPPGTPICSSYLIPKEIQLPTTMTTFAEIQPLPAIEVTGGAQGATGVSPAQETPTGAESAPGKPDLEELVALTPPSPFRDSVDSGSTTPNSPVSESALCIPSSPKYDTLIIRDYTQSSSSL
In words: Calcium fluorescence assay (FDSS) in rat cortical astrocytes. To be noted: for effect on glutamate-induced calcium response: 10 μM compound, 5 min; for effect on glutamate-induced calcium response / maximal reduction of the response to glutamate / antagonist activity across a range of concentrations / IC50: nearly maximal glutamate; for block of MPEP-induced inhibition of the glutamate response: compound added 1 min before; for potentiation of response to suboptimal glutamate: DFB 30 μM, CDPPB 3 μM; for effect on glutamate concentration response curve: 10 μM (maximally effective) compound, range of glutamate concentrations; for maximal inhibition relative to that of MPEP: % of maximal inhibition by MPEP; for rightward shift of concentration response curve compared to MPEP: antagonism of mGluR5-mediated calcium increase; for activation of mGluR5 when added alone: compound alone; for maximal reduction of the response to glutamate: concentration response; for IC50: read-out: IC50 at inhibiting mGluR5 receptor responses. In kind it is cell-based. Here is the method: Metabotropic glutamate receptor 5induced phosphorylation of extracellular signal-regulated kinase in astrocytes depends on transactivation of the epidermal growth factor receptor. J Neurosci 21:9619-28). In brief, neocortices from 2-4 day old Sprague Dawley rat pups were dissected and dissociated in DMEM by trituration with 1 ml pipette tips. The cells were then centrifuged and resuspended in DMEM (containing 1 mM sodium pyruvate, 2 mM L-glutamine, PenStrep) supplemented with 10% FBS in T75 tissue culture flasks; the medium was changed the next day. Cell cultures were maintained at 37° C. in an atmosphere of 95% air/5% CO2 for 6-8 days. Cells were shaken overnight (280-310 rpm) to remove oligodendrocytes and microglia.
Secondary astrocytes were trypsinzed and replated into poly-D-Lysine coated 384 well plates (Greiner) at 10K cells/well in 20 μL growth medium (DMEM containing 10% FBS, 20 mM HEPES, 2 mM L-glutamine and antibiotic/antimycotic). The second day the medium was changed to growth medium and G-5 supplement (Invitrogen) containing EGF (10 ng/ml), basic fibroblast growth factor (5 ng/ml), insulin (5 μg/ml), and other factors. The cells were nearly confluent within 2 days and resembled the polygonal astrocytic appearance in vivo. The fourth day, approximately 20 hours before experiments, the medium was changed to glutamine free DMEM containing 5% dialyzed FBS, 20 mM HEPES and antibiotic/antimycotic. On day five medium was removed from the plate and the cells incubated with 20 μL of 1 μM Fluo-4AM (Molecular Probes) in assay buffer (Hank's balanced salt solution, 20 mM HEPES and 2.5 mM Probenecid) for 1 h at 37° C. Dye was removed and 20 μL assay buffer was added. Ca2+ flux was measured using the Functional Drug Screening System (FDSS6000 by Hamamatsu).
Compounds were diluted into assay buffer to a 5× stock which was applied to the cells. For neutral measurements, cells were preincubated with the test compounds for 1 min, potentiator or antagonist was added, and the cells incubated for an additional 5 min. Cells were then stimulated for 2 min with an appropriate concentration of glutamate. For potentiator and antagonist measurements, cells were preincubated with the test compounds for 5 min and then stimulated for 2 min with an appropriate concentration of glutamate. Data were collected at ¼ Hz during the preincubation period and at 1 Hz during the glutamate addition phase of the experiment.
Raw data were normalized in a three step process: (1) Cell number and non-uniform illumination/imaging were controlled for based on the initial readings for the well, (2) the signal amplitude for the data point immediately preceding the agonist addition was subtracted from each point on the trace, (3) data were normalized to the maximal response for each experiment. Concentration response curves were generated using Prism 4.0 (GraphPad).

Test [3] has as its system mGluR5 receptor responses in STN neurons. As to the kind of experiment: Whole-cell electrophysiology in STN neurons of rat midbrain slices (DHPG-induced depolarization). In kind it is cell-based.
The target of test [4] is T3, rat mGluR5 (allosteric MPEP site) (Rattus norvegicus, UniProt P31424).
T3 construct: expressed in transfected cells
T3 sequence (P31424 21-1203): as above
As to the kind of experiment: [3H]methoxyPEPy radioligand binding assay, membranes of HEK293A cells stably expressing rat mGluR5. To be noted: for Ki: 2 nM [3H]methoxyPEPy, 60 min room temperature, rat mGluR5 HEK293A membranes, read-out: Ki, displacement of [3H]methoxyPEPy binding; for inhibition of binding of [3H]methoxyPEPy to mGluR5 membranes: extent of displacement, in words. Here is the method:
FIG. 3. […] Samples were filtered through glass fiber filters and washed extensively. […] Concentration response curves were generated from the means of three separate experiments. Error bars represent SEM.
Membranes were prepared from HEK293A cells stably expressing rat mGluR5. Compounds were diluted into assay buffer (50 mM Tris/0.9% NaCl, pH 7.4) to a 5× stock and 20 μL test compound added to each well of a 96 well assay plate. 60 μL aliquots of membranes diluted in assay buffer (10 μg/well) were added to each well. 20 μL [3H]methoxyPEPy (2 nM final concentration in assay buffer) was added and the reaction incubated at room temperature for 60 min with shaking. After the incubation period, the membrane-bound ligand was separated from free ligand by filtration through glass-fiber 96 well filter plates (Unifilter-96, GF/B by Perkin Elmer). The contents of each well was transferred simultaneously to the filter plate and washed 4 times with assay buffer (Brandel Cell Harvester). 30 μL scintillation fluid was added to each well and the membrane-bound radioactivity determined by scintillation counting (TopCount by Perkin-Elmer).
For orientation: In a radioligand displacement assay an active substance lowers the binding of a labelled ligand.

Setting [5] is: 5MPEP 3, 10, 30 μM on MPEP concentration response.

As to `Cc1ccc(C#Cc2ccccc2)nc1` [5MPEP, 5-methyl-2-phenylethynyl-pyridine, reference compound], the “inhibition of mGluR5 receptor responses” value at mGluR5 [1] was “completely inactive”. For the same compound, on mGluR5 [2], the “effect on glutamate-induced calcium response” value is given as “no inhibitory effect”. On mGluR5 [2] (5MPEP 30 μM, suboptimal glutamate), the “effect on mGluR5 response to glutamate alone” value is reported as “does not alter”. The “block of allosteric potentiator responses to DFB and CDPPB” value on mGluR5 [2] (5MPEP 30 μM, DFB 30 μM or CDPPB 3 μM, suboptimal glutamate) is reported as “completely blocks”. At mGluR5 [2] (setting [5]), the “Schild regression slope, 5MPEP versus MPEP” value is 1.076±0.0094 and 1.076±0.01; the Schild x-intercept is −6.249. In addition, the “block of MPEP-induced inhibition of the glutamate response” value at mGluR5 [2] (MPEP 50 nM) was “fully blocked”. In addition, the Ki on mGluR5 [2] (extrapolated from Schild regression, read-out: Ki from Schild analysis (x-intercept)) is 560 nM. In addition, in test [3], the “DHPG-induced depolarization in presence of CDPPB and 5MPEP” value came out at 7.05±0.82 mV; the “DHPG-induced depolarization in presence of MPEP and 5MPEP” value came out at 14.28±2.1 mV; the “effect on membrane potential of STN neurons” value is on record as “no effect”.
For the compound `N#Cc1cccc(C(=O)Nc2cc(-c3ccccc3)nn2-c2ccccc2)c1` [CDPPB, 3-cyano-N-(I,3-diphenyl-1 H-pyrazol-5-yl)benzamide, reference compound], the “potentiation of response to suboptimal glutamate” value on mGluR5 [2] is “potentiated”. For the same compound, the “DHPG-induced depolarization in presence of CDPPB” value in test [3] (DHPG 10 μM + CDPPB 10 μM) worked out at 13.39±1.66 mV.
Regarding `Brc1ccc(C#Cc2ccccc2)nc1.Cl` [YP260], the “partial antagonist activity (FIG. 11)” value at mGluR5 [2] (similarly to the figures above) is “partial activities”.
For the compound “3-(6-Methylpyridin-2-ylethynyl)-5-bromopyridine [Br-5MPEPy]”, in test [4], the inhibitory constant (Ki) worked out at 182 ± 50 nM and the “inhibition of binding of [3H]methoxyPEPy to mGluR5 membranes” value is “fully inhibited”. At mGluR5 [2], the “effect on glutamate concentration response curve” value is “rightward and partial downward shift”; the “effect on glutamate-induced calcium response” value is on record as “partially inhibited”; the “maximal inhibition relative to that of MPEP” value is reported as “approximately 50%”; the “rightward shift of concentration response curve compared to MPEP” value was “approximately 10 fold”. Also, on mGluR5 [2], the “activation of mGluR5 when added alone” value is recorded as “do not partially activate”, the “maximal reduction of the response to glutamate” value was “approximately 50%”, the “antagonist activity across a range of concentrations” value is on record as “partial antagonist activity” and the IC50 is around 300 nM. Besides, the “block of MPEP-induced inhibition of the glutamate response” value on mGluR5 [2] (MPEP 50 nM) was “only partially blocked”.
Turning to `Fc1cccc(C=NN=Cc2cccc(F)c2)c1` [DFB, 3,3′-di fluorobenzaldazine, reference compound], at mGluR5 [2], the “potentiation of response to suboptimal glutamate” value was “potentiated”.
Take `N[C@H](C(=O)O)c1cc(O)cc(O)c1` [DHPG]: the “depolarization of STN neurons” value in test [3] (DHPG 10 μM alone (submaximal)) came to 6.89 ± 1.22 mV; in test [3] (DHPG 100 μM alone, TTX 500 nM) it was 14.82 ± 2.21 mV.
For the compound `COc1cccc(C#Cc2ccc(C)cn2)c1` [M-5MPEP, 2-(3-Methoxyphenylethynyl)-5-methylpyridine], in test [4], the Ki amounted to 145 nM and the “inhibition of binding of [3H]methoxyPEPy to mGluR5 membranes” value is given as “fully inhibited”. In addition, on mGluR5 [2], the “effect on glutamate concentration response curve” value was “rightward and partial downward shift”; the “effect on glutamate-induced calcium response” value was “partially inhibited”; the “maximal inhibition relative to that of MPEP” value is reported as “approximately 50%”; the “rightward shift of concentration response curve compared to MPEP” value is “approximately 10 fold”. Besides, at mGluR5 [2], the “activation of mGluR5 when added alone” value is listed as “do not partially activate”, the “maximal reduction of the response to glutamate” value is given as “approximately 50%”, the “antagonist activity across a range of concentrations” value was “partial antagonist activity” and the IC50 is around 300 nM. Besides, on mGluR5 [2] (MPEP 50 nM), the “block of MPEP-induced inhibition of the glutamate response” value is “only partially blocked”.
For `Cc1cccc(C#Cc2ccccc2)n1` [MPEP, 2-methyl-6-(phenylethynyl)-pyridine, reference compound], the “effect on glutamate-induced calcium response” value on mGluR5 [2] is “fully blocked”. Further, the “inhibition of calcium response to nearly maximal glutamate” value at mGluR5 [2] (MPEP 50 nM) is listed as “robust inhibition”. In addition, the “DHPG-induced depolarization in presence of MPEP” value in test [3] (DHPG 100 μM + MPEP 10 μM) is on record as 6.15+0.82 mV.

Values taken from US7531541B2, “Partial mGluR5 antagonists for treatment of anxiety and CNS disorders” (Vanderbilt University, priority 2005, dated 2009).
